Patent US6689574B1, “Assays for nuclear receptor agonists and antagonists using fluorescence resonance energy transfer” (Merck & Co., Inc., priority 1997, dated 2004)

Key:
Format in all cases: biochemical
PPARγ1LBD [1] = target: T1, PPARγ1LBD (Homo sapiens, UniProt P37231); assay: FRET assay, GST-hCBP1-113 with Eu3+K-labeled anti-GST antibody, biotin-hPPARγ1LBD and SA-XL665 (experiment 3); set-up: amino acids 176-478 of PPARγ1; GST (N, cleaved yes); made in house; host or cells: E. coli (DH5α); details: HEPES + 0.05% NP40, 1 μM AD5075, ratio 665 nm/620 nm
T1 sequence (P37231 204-505): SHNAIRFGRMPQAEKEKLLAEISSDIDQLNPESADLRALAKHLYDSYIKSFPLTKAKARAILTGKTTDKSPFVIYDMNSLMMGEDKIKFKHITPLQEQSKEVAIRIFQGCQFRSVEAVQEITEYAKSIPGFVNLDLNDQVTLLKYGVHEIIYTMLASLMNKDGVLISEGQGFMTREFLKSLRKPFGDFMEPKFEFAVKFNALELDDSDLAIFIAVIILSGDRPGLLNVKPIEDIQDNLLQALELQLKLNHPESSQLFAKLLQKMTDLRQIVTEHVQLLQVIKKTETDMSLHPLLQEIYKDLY
T1 sequence (Q92793 1-113 partner): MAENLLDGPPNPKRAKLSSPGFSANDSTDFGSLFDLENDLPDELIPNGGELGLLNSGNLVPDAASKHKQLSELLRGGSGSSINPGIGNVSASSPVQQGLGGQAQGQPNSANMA
Description: In order to get an even better signal-noise ratio, the above-described format was modified slightly for experiment 3. In experiment 3, SA-XL665 (500 nM), biotin-labeled hPPARγ1LBD (100 nM), GST-hCBP1-113, and Eu3+K labeled anti-GST antibody (2.5 μl) were incubated in the presence or absence of AD5075 (1 μM) in HEPES buffer containing 0.05% NP40. A two-fold signal- noise ratio was obtained.
The anti-GST antibody was a goat antibody to GST from Pharmacia (catalogue number 27-4577-01) that was labeled with Eu3+K according to the procedure summarized below. [drawing 2]

PPARγ = target: T2, PPARγ (Homo sapiens, UniProt P37231); assay: Titration of known PPARγ agonists in the CBP/PPARγ FRET assay (FIG. 5); details: derived from FIG. 5; agonist-induced CBP-PPARγ FRET
T2 construct: amino acids 176-478 of PPARγ1; GST (N); made in house; host or cells: E. coli (DH5α)
T2 sequence (P37231 204-505 limits assumed): as the sequence (P37231 204-505) above
T2 sequence (Q92793 1-453 partner limits assumed): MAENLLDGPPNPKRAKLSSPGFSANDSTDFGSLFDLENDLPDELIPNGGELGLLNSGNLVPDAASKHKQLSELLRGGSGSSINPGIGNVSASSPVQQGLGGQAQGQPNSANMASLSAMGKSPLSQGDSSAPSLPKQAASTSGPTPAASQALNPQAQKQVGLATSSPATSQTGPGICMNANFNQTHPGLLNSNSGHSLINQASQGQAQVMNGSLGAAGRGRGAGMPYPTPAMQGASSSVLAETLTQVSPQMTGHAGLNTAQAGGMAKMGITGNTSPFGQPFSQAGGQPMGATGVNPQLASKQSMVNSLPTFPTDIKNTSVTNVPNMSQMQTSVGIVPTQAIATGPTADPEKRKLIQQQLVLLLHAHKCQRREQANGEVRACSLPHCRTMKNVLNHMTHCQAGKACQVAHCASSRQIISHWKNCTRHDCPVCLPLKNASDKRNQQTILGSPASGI

PPARγ1LBD [2] = target: T1, PPARγ1LBD; assay: FRET assay, Eu3+K-labeled hCBP1-113 with biotin-hPPARγ1LBD and SA-XL665 (experiments 1 and 2); set-up: amino acids 176-478 of PPARγ1; GST (N, cleaved yes); made in house; host or cells: E. coli (DH5α); details: 1 μM AD5075, ratio 665 nm/620 nm
From the text: Experiments were first conducted using hCBP1-113 and hPPARγ1LBD. Purified hPPARγ1LBD was biotinylated with Sulfo-NHS-LC-Biotin (PIERCE) to a biotin:hPPARγ1LBD ratio of 3:1 according to the procedure provided by PIERCE. Purified hCBP1-113 was directly labeled with europium cryptate (Eu3+K) by the method illustrated in FIG. 1.
Thus, this experimental format made use of the fluorescent reagent pair europium cryptate (Eu3+K), which acted as donor, and XL665, which acted as acceptor. hCBP1-113 was directly labeled with europium cryptate (Eu3+K); hPPARγ12LBD was indirectly labeled with XL665 by means of a biotin-streptavidin link. The emission maximum of europium cryptate (Eu3+K) overlaps with the absorption maximum of XL665. Therefore, when europium cryptate (Eu3+K) and XL665 are in close proximity, and the sample is illuminated with light at 337 nm (the absorption maximum of europium cryptate (Eu3+K)), FRET can occur between europium cryptate (Eu3+K) and XL665. This FRET manifests itself as increased emission at 665 nm by XL665. […] When agonist is bound to hPPARγ1LBD, a specific interaction occurs between hPPARγ1LBD and hCBP1-113, thus bringing europium cryptate (Eu3+K) and XL665 into close enough proximity for FRET to occur. […]

GST-hPPARγ1LBD = target: T3, GST-hPPARγ1LBD (Homo sapiens, UniProt P37231); assay: FRET assay, biotin-hCBP1-453 with SA-XL665, GST-hPPARγ1LBD and Eu3+K-labeled anti-GST antibody (experiment 4); details: HEPES + 0.05% CHAPS, 1 μM AD5075, ratio 665 nm/620 nm
T3 construct: amino acids 176-478 of PPARγ1; made in house; host or cells: E. coli (DH5α)
T3 sequence (P37231 204-505): as the sequence (P37231 204-505) above
T3 sequence (Q92793 1-453 partner): as the sequence (Q92793 1-453 partner limits assumed) above
Description: To further improve the signal to noise ratio, a series of experiments were conducted. Experiment 4 of Table 1 exemplifies 5 results obtained from those efforts. cDNA encoding a longer fragment of hCBP was cloned and expressed to get hCBP1-453. hCBP1-453 was biotinylated. Biotin-labeled hCBP1-453 (25 nM), SA-XL665 (100 nM), GST-hPPARγ1LBD (1 nM), and Eu3+K-labeled anti-GST antibody (2 nM) were mixed together in the presence or absence of 1 μM AD5075. […] A three- to four-fold signal-noise ratio was obtained.

- Emission ratio with AD5075 (PPARγ1LBD [1]): 1078
- EC50 (PPARγ): 8 nM
- Emission ratio with AD5075 (PPARγ1LBD [2]; Experiment 1, PBS buffer): 1134
- Emission ratio with AD5075 (PPARγ1LBD [2]; Experiment 2, HEPES + 0.05% NP40): 967
- Emission ratio with AD5075 (GST-hPPARγ1LBD): 1883
Structure (SMILES): Cc1oc(-c2ccccc2)nc1C(O)COc1ccc(CC2SC(=O)NC2=O)cc1 (centres unmarked) [AD5075]
